Laboratory results reported in article PMC549046 (Comparative Hepatology, 2005).
Values joined by “and” are separate entries in the source; they are usually repeats but may differ in a detail not shown here. Identical values can stand only once. “Also recorded” adds a separate entry of the source. Like-named read-outs stand apart in the source and are kept apart here. Marks after values point to notes of the source that are not given here.

Columns and labels:
[1] = target: T1, CYP1A (Gadus morhua, UniProt A0ACE1MZ74); experiment: In vitro inhibition of CYP1A-mediated EROD activity in pooled liver microsomes; conditions: both, Atlantic cod (Gadus morhua); for Ki: hepatic microsomal CYP1A (EROD) activity
T1 sequence (A0ACE1MZ74 1-519): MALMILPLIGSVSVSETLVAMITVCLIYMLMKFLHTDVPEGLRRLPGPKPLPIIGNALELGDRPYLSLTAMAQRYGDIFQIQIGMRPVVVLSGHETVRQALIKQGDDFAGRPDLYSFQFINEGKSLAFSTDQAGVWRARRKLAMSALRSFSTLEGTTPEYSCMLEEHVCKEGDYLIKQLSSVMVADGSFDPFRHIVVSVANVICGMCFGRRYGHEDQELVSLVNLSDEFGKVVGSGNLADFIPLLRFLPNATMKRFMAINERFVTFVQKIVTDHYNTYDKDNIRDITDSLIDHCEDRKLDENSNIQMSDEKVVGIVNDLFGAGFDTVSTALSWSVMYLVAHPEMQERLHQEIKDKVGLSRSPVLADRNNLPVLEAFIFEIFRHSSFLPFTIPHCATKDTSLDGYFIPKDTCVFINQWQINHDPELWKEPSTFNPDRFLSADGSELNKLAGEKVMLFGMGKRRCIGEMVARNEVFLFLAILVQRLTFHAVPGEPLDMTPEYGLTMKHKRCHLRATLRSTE
Experimental: (§1) For in vitro inhibition studies, feral Atlantic cod of both sexes were caught off the West coast of Sweden and placed in concrete basins provided with recirculating aerated seawater at 10 ± 2°C and a salinity of 3.0% and alternative light/dark photoperiods of 12 hours. Prior to sampling, the animals were starved and acclimated to these conditions for three weeks. Eight fish were injected i.p. with β-naphthoflavone (BNF), 50 mg/kg b.w. dissolved in peanut oil (5.0 mg/ml). The fish were placed in a 100 l glass aquarium provided with aerated seawater (above) and 30% of the water volume was replaced each day. To eliminate visual stress, the sides of the aquaria were covered with black plastic sheets. After 3 days exposure, the fish were sacrificed. Livers were quickly dissected out and placed in ice-cold homogenization buffer. Livers were pooled from twenty untreated Atlantic cod and from eight BNF treated Atlantic cod, respectively. Microsomal fractions were isolated (above) and stored in aliquots at -80°C. Ethical approval from the Ethical committee of Göteborg license number (99–2003).
(§2) The CYP1A activity was determined as EROD activity, using resorufin as standard in a SpectraFluor plate reader according to the protocol provided by Nilsen et al.. The CYP3A catalytic activity was measured as BFCOD activity, using HFC as standard. The BFC assay was performed based on a published protocol by Miller et al. and optimized for rainbow trout liver microsomes (T. Hegelund and M. Celander, unpublished data). The reaction mixture consisted of 200 μM BFC, bovine serum albumin (1.6 mg/ml), 2 μM NADPH and 10 μl liver microsomes in a total volume of 200 μl in 0.2 M potassium phosphate buffer pH 7.4 in a 96-multiwell plate using a VICTOR™ 1420 Multilabel Counter from Wallac Sverige AB (Upplands Väsby, Sweden).
(§3) In vitro inhibition studies were carried out in 96-multiwell plates using a VICTOR™ 1420 Multilabel Counter. […] The substances were dissolved in DMSO and diluted with ethanol. The final concentrations never exceeded 0.01% (v/v) DMSO and 0.001% ethanol (v/v). For CYP1A and CYP3A inhibition studies, pooled liver microsomes from BNF-treated and from untreated Atlantic cod, respectively, were used.

[2] = target: T2, Hepatic Microsomal CYP1A activity (Gadus morhua, UniProt A0ACE1MZ74); experiment: as above; conditions: for Type of inhibition of CYP1A (EROD) activity: cod liver microsomes, Dixon plots
T2 sequence (A0ACE1MZ74 1-519): T1 sequence (A0ACE1MZ74 1-519)
Experimental: as §1, §2, §3

[3] = tested on: CYP3A; experiment: In vitro inhibition of CYP3A-mediated BFCOD activity in pooled liver microsomes; conditions: both, Atlantic cod (Gadus morhua)
Experimental: as §1, §2, §3

[4] = target: T3, cDNA Expressed Human CYP3A4 (Homo sapiens, UniProt P08684); experiment: Inhibition of BFCOD activity in cDNA expressed human CYP3A4 baculovirus supersomes; type: biochemical; conditions: substrate BFC
T3 construct: purchased BD Biosciences Company, Gentest (Woburn, MA, USA); host or cells: baculovirus expression system (supersomes)

[5] = tested on: CYP1A; experiment: In vivo hepatic CYP1A enzyme (EROD) activity after i.p. exposure; conditions: 5 days, NP 25 mg/kg, ethynylestradiol 5 mg/kg
Experimental: (§4) Hatchery reared juvenile Atlantic cod of both sexes with an average body weight (b.w.) around 400 g were supplied by Sekkingstad, Preserving AS, Hordaland, Norway. The fish were kept in 0.5 m^3 indoor glass fibre tanks, at Industrial Laboratory (ILAB), Bergen High Technology Centre (Bergen, Norway), provided with continuously flowing seawater at a temperature of 8 ± 0.5°C and a salinity of 3.4%. Throughout the experimental period, the fish were subjected to continuous 24 h artificial light (the regime the farm used for optimal fish growth). The fish were acclimated to these conditions for five days prior to the experimental period. […] Control fish were injected with 5 ml peanut oil/kg b.w. (vehicle). There were eight to nine fish in each treatment group. When designing the experiment, we could only test one combination due to limited fish numbers.
(§5) After five days exposure, the fish were sacrificed by a sharp blow to the head. […] Total microsomal protein content was measured according to a published method by Bradford, using bovine serum albumin as standard, and a SpectraFluor spectrophotometer from Tecan (Grödig/Salzburg, Austria). […]
The CYP1A activity was determined as EROD activity, using resorufin as standard in a SpectraFluor plate reader according to the protocol provided by Nilsen et al.. The CYP3A catalytic activity was measured as BFCOD activity, using HFC as standard. […]

[6] = tested on: CYP1A; experiment: In vivo hepatic CYP1A protein expression (western blot); conditions: i.p., 5 days, NP 25 mg/kg, ethynylestradiol 5 mg/kg
Experimental: as §4, with “There were eight to nine fish in each treatment group. When designing the experiment, we could only test one combination due to limited fish numbers.” left out
as §5
(§6) Western blot analyses of 40 μg hepatic microsomal protein were carried out using enhanced chemoluminescence (ECL), based on the protocol previously described and PAb raised against rainbow trout CYP1A and CYP3A [41, 55, 56]. The intensity of each protein band was determined by densitometry on scanned fluorograms using Labview 7.0 from National Instruments (Austin, TX, USA).

[7] = tested on: CYP3A; experiment: In vivo hepatic CYP3A protein expression (western blot); conditions: i.p., 5 days, KC 12, NP 25, KC+NP 12+25 mg/kg
Experimental: as §4, with “There were eight to nine fish in each treatment group. When designing the experiment, we could only test one combination due to limited fish numbers.” left out
as §5, §6

[8] = tested on: CYP3A; experiment: CYP3A 2D gel electrophoresis immunoblot of pooled liver microsomes from treated fish
Experimental: as §4
(§7) After five days exposure, the fish were sacrificed by a sharp blow to the head. Blood samples were collected from the dorsal vein using a heparinized syringe and the liver was quickly dissected out and placed in ice-cold homogenization buffer (0.1 M sodium phosphate buffer pH 7.4, containing 0.15 M KCl, 1 mM EDTA and 1 mM DTT). Liver microsomes were prepared according to the published protocol by Goksøyr, and stored at -80°C. Total microsomal protein content was measured according to a published method by Bradford, using bovine serum albumin as standard, and a SpectraFluor spectrophotometer from Tecan (Grödig/Salzburg, Austria). Blood plasma was isolated by centrifugation at 5,000 g for 10 min at room temperature and stored at -80°C. Ethical approval licence number of ILAB Bergen: 119. Experiment no. 0204.

[9] = tested on: vitellogenin; experiment: Plasma vitellogenin analysis (ELISA); type: in vivo, Atlantic cod (Gadus morhua); conditions: i.p., 5 days; for Effect on plasma vitellogenin: in words; for Vitellogenin plasma level: mean (SD), n = 7–8
Experimental: (§8) Ethical approval licence number of ILAB Bergen: 119. Experiment no. 0204.
Plasma levels of vitellogenin protein were determined using a non-competitive sandwich ELISA kit and employing rabbit PAb against Atlantic cod vitellogenin from Biosense Laboratories AS (Bergen, Norway). Each plasma sample was diluted (1:20, 1:15,000 and 1:50,000) and 100 μl was analyzed and compared to purified Atlantic cod vitellogenin protein standards (ranging between 0.12 and 2,000 ng/ml). The signal was detected at A492 after 15 min incubation with substrate solution, using a VICTOR™ 1420 Multilabel Counter.

[10] = tested on: 17β-estradiol; experiment: Plasma 17β-estradiol analysis (EIA); type: in vivo, Atlantic cod (Gadus morhua); conditions: i.p., 5 days; for Effect on 17β-estradiol plasma levels: compared to vehicle or single compounds, in words; for 17β-Estradiol plasma level: mean (SD), n = 8
Experimental: as §8
(§9) Plasma levels of 17β-estradiol and testosterone were determined using competitive EIA kits from Cayman Chemical (Ann Arbor, MI, USA). Plasma levels of 11-keto-testosterone were analyzed using a competitive EIA kit, from Biosense Laboratories AS (Bergen, Norway). Plasma from each fish was concentrated (2:1) by extraction once with six volumes diethyl ether and 50 μl was analyzed and compared to purified standard substances. The signals were detected at A405 after 40 min (17β-estradiol), 60 min (testosterone) or 80 min (11-keto-testosterone) incubation with substrate solution, using a VICTOR™ 1420 Multilabel Counter.

[11] = tested on: 11-keto-testosterone; experiment: Plasma 11-keto-testosterone analysis (EIA); type: in vivo, Atlantic cod (Gadus morhua); conditions: i.p., 5 days; for Effect on 11-keto-testosterone plasma levels: compared to vehicle or single compounds, in words; for 11-Keto-Testosterone plasma level: mean (SD), n = 6–8
Experimental: as §8, §9

[12] = tested on: Hepatic Microsomal CYP3A activity; experiment: In vitro inhibition of CYP3A-mediated BFCOD activity in pooled liver microsomes; conditions: for Type of inhibition of CYP3A (BFCOD) activity: cod liver microsomes, Dixon plots
Experimental: as §1, §2, §3

[13] = tested on: testosterone; experiment: Plasma testosterone analysis (EIA); type: in vivo, Atlantic cod (Gadus morhua); conditions: i.p., 5 days
Experimental: as §4
as §7, with “Liver microsomes were prepared according to the published protocol by Goksøyr, and stored at -80°C.” left out, “Blood plasma was isolated by centrifugation at 5,000 g for 10 min at room temperature and stored at -80°C. Ethical approval licence number of ILAB Bergen: 119. Experiment no. 0204.” left out

[14] = tested on: CYP3A; experiment: In vitro pre-incubation of liver microsomes followed by CYP3A western blot; conditions: pooled cod liver microsomes pre-incubated 10, 30, 60 min
Experimental: The CYP3A western blot analysis was performed as described above.

[15] = tested on: Hepatic Microsomal CYP3A activity; parameters: method as in PMID 15084407; conditions: pooled cod liver microsomes; substrate BFC; published earlier, ref [22]; read-out: IC50, hepatic microsomal CYP3A (BFCOD) activity; cited from earlier work
[16] = tested on: hepatic BFCOD activities; conditions: ref [13],[22]; read-out: IC50, hepatic BFCOD activity in killifish; cited from earlier work
[17] = tested on: hepatic BFCOD activities; conditions: ref [13],[22]; read-out: IC50, hepatic BFCOD activity in rainbow trout; cited from earlier work
[18] = no [S] level stated, Dixon plot
[19] = 2D gel immunoblot, pooled liver microsomes of 8–9 treated fish

T3 sequence (P08684 whole entry): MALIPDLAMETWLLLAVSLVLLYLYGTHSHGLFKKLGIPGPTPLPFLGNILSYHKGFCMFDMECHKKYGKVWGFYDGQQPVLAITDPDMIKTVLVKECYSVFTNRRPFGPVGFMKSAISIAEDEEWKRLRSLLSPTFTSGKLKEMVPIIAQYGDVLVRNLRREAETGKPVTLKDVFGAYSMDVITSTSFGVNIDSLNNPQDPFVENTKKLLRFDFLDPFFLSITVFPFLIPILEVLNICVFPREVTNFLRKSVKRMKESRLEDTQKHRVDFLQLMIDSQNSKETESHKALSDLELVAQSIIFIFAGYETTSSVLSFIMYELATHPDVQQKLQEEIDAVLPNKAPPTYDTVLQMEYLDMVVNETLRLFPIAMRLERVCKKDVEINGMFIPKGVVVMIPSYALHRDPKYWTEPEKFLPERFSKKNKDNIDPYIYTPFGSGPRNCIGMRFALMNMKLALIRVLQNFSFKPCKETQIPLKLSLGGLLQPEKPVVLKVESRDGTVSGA

Row | SMILES | IC50 [1] | Ki [1, 18] | Type of inhibition of CYP1A (EROD) activity [2] | IC50 ([3]; microsomes, pH 7.4) | Effect on CYP3A protein expression [7] | Induction of the more basic CYP3A-immunoreactive isoform (pI around 5.1) [8, 19] | Effect on plasma vitellogenin [9] | Vitellogenin plasma level [9] | Effect on 17β-estradiol plasma levels [10] | 17β-Estradiol plasma level [10] | Effect on 11-keto-testosterone plasma levels [11] | 11-Keto-Testosterone plasma level [11] | Type of inhibition of CYP3A (BFCOD) activity [12] | also measured
1 | CCCCCCCCCc1ccc(O)cc1 [nonylphenol, 4-nonylphenol] | 5.2 µM | ~3.5 µM | non-competitively inhibited | 160 µM | no effect | did not induce | induction | 266 (199) ^a μg/ml plasma | no statistically significant effect | 76 (52) pg/ml plasma | no statistically significant effect | 42 (67) pg/ml plasma |  | Type of inhibition of CYP1A (EROD) activity ([2]; listed as Nonylphenol): non-competitive inhibitor; Ki ([2]; read-out: Ki, hepatic microsomal CYP1A (EROD) activity, no [S] level stated, Dixon plot, listed as Nonylphenol (NP)): 3.5 µM; IC50 [4]: 35 µM; Decrease in CYP1A (EROD) activity compared to fish exposed to ketoconazole + nonylphenol [5]: 65%; Reduction of CYP1A (EROD) activity compared to vehicle treated fish [5]: 41% and 40%; Effect on CYP1A protein expression [6]: no effect
2 | C#C[C@]1(O)CC[C@H]2[C@@H]3CCc4cc(O)ccc4[C@H]3CC[C@@]21C [ethynylestradiol, 17α-ethynylestradiol] | 20 µM | 5.4 to 10.3 µM | non-competitive inhibitor | 40 µM |  |  | induction | 4,350 (1,463) ^a μg/ml plasma | no statistically significant effect | 100 (69) pg/ml plasma | no statistically significant effect | 35 (23) pg/ml plasma | uncompetitive inhibitor | Ki ([1]; high [S], high [S] 7-ethoxyresorufin, one representative Dixon plot): 10.3 µM; Ki ([1]; low [S], low [S] 7-ethoxyresorufin, one representative Dixon plot): 5.4 µM; Ki ([3]; pooled liver microsomes from untreated Atlantic cod, pH 7.4, probe BFC): 54 to 95 µM; Ki ([3]; pooled liver microsomes from untreated Atlantic cod, pH 7.4, probe BFC (high [S])): 95 µM; Ki ([3]; pooled liver microsomes from untreated Atlantic cod, pH 7.4, probe BFC (low [S])): 54 µM; Induction of the more basic CYP3A-immunoreactive isoform (pI around 5.1) ([8]; in vivo): did not induce; Effect on testosterone plasma levels ([13]; compared to vehicle or single compounds, in words): no statistically significant effect; Testosterone plasma level ([13]; mean (SD), n = 7–8): 90 (40) pg/ml plasma
3 | CC(=O)N1CCN(c2ccc(OCC3COC(Cn4ccnc4)(c4ccc(Cl)cc4Cl)O3)cc2)CC1 (stereo not shown) [ketoconazole] |  |  |  |  | no effect | inducible; also recorded: induced |  | 0.6 (0.9) μg/ml plasma |  | 60 (26) pg/ml plasma |  | 71 (46) pg/ml plasma | non-competitive inhibitor | Ki ([3]; microsomes, pH 7.4): […]; Ki, hepatic microsomal CYP3A (BFCOD) activity [12, 18]: sub-μM range; Effect of pre-incubation on hepatic microsomal CYP3A protein levels [14]: no effects; IC50 [15]: 0.3 µM; IC50 [16]: 0.01 µM; IC50 [17]: 0.1 µM
